The NIST ThermoML archive (doi:10.1021/je0504459)

Experiment: xn = mol fraction of the nth substance listed
Settings: 101 kPa, Liquid; for speed of sound: Sing-around technique in a fixed-path interferometer

ClC(Cl)Cl [trichloromethane] + CCCCCO
Settings	kinematic viscosity, 303.15 K [m2/s]	kinematic viscosity, 313.15 K [m2/s]	mass density, 303.15 K [kg/m3]	mass density, 313.15 K [kg/m3]	speed of sound, 303.15 K [m/s]	speed of sound, 313.15 K [m/s]
x1 = 0.0603	3.29e-06	2.56e-06	838.65	830.58	1241	1206
x1 = 0.1009	3.02e-06	2.35e-06	859.39	850.98	1226	1191
x1 = 0.1484	2.7e-06	2.12e-06	884.22	875.42	1209	1173
x1 = 0.1999	2.37e-06	1.88e-06	911.83	902.58	1190	1154
x1 = 0.2517	2.08e-06	1.66e-06	940.34	930.67	1171	1135
x1 = 0.2999	1.83e-06	1.48e-06	967.6	957.42	1153	1117
x1 = 0.3492	1.61e-06	1.31e-06	996.23	985.58	1135	1099
x1 = 0.3998	1.39e-06	1.15e-06	1026.46	1015.29	1118	1082
x1 = 0.45	1.22e-06	1.02e-06	1057.32	1045.59	1101	1065
x1 = 0.5004	1.07e-06	9.03e-07	1089.21	1076.95	1084	1048
x1 = 0.5498	9.31e-07	8.02e-07	1121.44	1108.55	1068	1032
x1 = 0.6001	8.27e-07	7.22e-07	1155.25	1141.78	1053	1017
x1 = 0.6513	7.24e-07	6.43e-07	1190.8	1176.65	1038	1002
x1 = 0.7003	6.57e-07	5.85e-07	1225.93	1211.12	1025	989
x1 = 0.751	5.85e-07	5.3e-07	1263.53	1247.97	1012	977
x1 = 0.8	5.3e-07	4.83e-07	1301.08	1284.81	1001	966
x1 = 0.8503	4.87e-07	4.48e-07	1341.02	1323.97	991	956
x1 = 0.9004	4.42e-07	4.11e-07	1382.24	1364.37	982	947
x1 = 0.952	4.05e-07	3.75e-07	1426.4	1407.56	974	938
x1 = 1	3.63e-07	3.39e-07	1469.21	1449.74	969	934

ClC(Cl)Cl [trichloromethane] + CCCCCCCO
Settings	kinematic viscosity, 303.15 K [m2/s]	kinematic viscosity, 313.15 K [m2/s]	mass density, 303.15 K [kg/m3]	mass density, 313.15 K [kg/m3]	speed of sound, 303.15 K [m/s]	speed of sound, 313.15 K [m/s]
x1 = 0.0487	5.58e-06	4.17e-06	833.37	825.81	1296	1262
x1 = 0.1002	4.98e-06	3.74e-06	853.69	845.75	1277	1244
x1 = 0.1498	4.41e-06	3.34e-06	874.2	865.8	1260	1226
x1 = 0.2006	3.86e-06	2.95e-06	896.15	887.32	1241	1207
x1 = 0.2516	3.38e-06	2.61e-06	919.27	909.96	1222	1187
x1 = 0.3003	2.93e-06	2.29e-06	942.39	932.57	1204	1168
x1 = 0.3538	2.52e-06	1.99e-06	969.09	958.73	1183	1147
x1 = 0.4003	2.18e-06	1.75e-06	993.52	982.67	1165	1129
x1 = 0.4466	1.89e-06	1.54e-06	1019.1	1007.69	1147	1111
x1 = 0.5001	1.61e-06	1.32e-06	1050.23	1038.22	1126	1091
x1 = 0.5517	1.35e-06	1.13e-06	1082.09	1069.43	1107	1072
x1 = 0.6002	1.17e-06	1e-06	1113.83	1100.51	1089	1054
x1 = 0.6539	9.76e-07	8.45e-07	1151.17	1137.19	1070	1035
x1 = 0.6994	8.51e-07	7.41e-07	1184.84	1170.19	1054	1019
x1 = 0.7449	7.4e-07	6.59e-07	1220.55	1205.18	1039	1004
x1 = 0.8	6.33e-07	5.69e-07	1266.83	1250.5	1022	987
x1 = 0.8465	5.58e-07	5.09e-07	1308.67	1291.64	1008	972
x1 = 0.9003	4.81e-07	4.45e-07	1360.81	1342.82	993	957
x1 = 0.9521	4.2e-07	3.88e-07	1414.86	1396.16	979	943
x1 = 1	3.63e-07	3.39e-07	1469.21	1449.74	969	934

ClC(Cl)Cl [trichloromethane] + CCCCCCO
Settings	kinematic viscosity, 303.15 K [m2/s]	kinematic viscosity, 313.15 K [m2/s]	mass density, 303.15 K [kg/m3]	mass density, 313.15 K [kg/m3]	speed of sound, 303.15 K [m/s]	speed of sound, 313.15 K [m/s]
x1 = 0.0497	4.36e-06	3.21e-06	833.07	825.31	1271	1238
x1 = 0.1004	3.88e-06	2.89e-06	855.62	847.51	1253	1220
x1 = 0.15	3.45e-06	2.59e-06	878.54	870.06	1236	1201
x1 = 0.2006	3.04e-06	2.31e-06	902.79	893.94	1217	1182
x1 = 0.2506	2.67e-06	2.05e-06	927.71	918.4	1198	1163
x1 = 0.3005	2.34e-06	1.83e-06	953.48	943.71	1180	1143
x1 = 0.3497	2.04e-06	1.6e-06	980.04	969.85	1161	1125
x1 = 0.4004	1.77e-06	1.41e-06	1008.41	997.66	1142	1105
x1 = 0.4516	1.53e-06	1.23e-06	1038.38	1027.09	1123	1086
x1 = 0.4996	1.34e-06	1.09e-06	1067.63	1055.84	1106	1069
x1 = 0.552	1.14e-06	9.5e-07	1100.94	1088.53	1087	1051
x1 = 0.6	9.87e-07	8.33e-07	1133.01	1120	1070	1034
x1 = 0.654	8.52e-07	7.35e-07	1170.75	1157	1052	1016
x1 = 0.7001	7.46e-07	6.49e-07	1204.57	1190.18	1038	1002
x1 = 0.753	6.5e-07	5.82e-07	1245.39	1230.25	1023	986
x1 = 0.7992	5.82e-07	5.22e-07	1282.69	1266.83	1010	974
x1 = 0.8511	5.08e-07	4.7e-07	1327.07	1310.35	997	961
x1 = 0.8996	4.5e-07	4.26e-07	1370.59	1352.95	987	950
x1 = 0.9502	4.06e-07	3.81e-07	1418.68	1400.1	977	941
x1 = 1	3.63e-07	3.39e-07	1469.21	1449.74	969	934
